Assay results reported in PubChem BioAssay (NCI).
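A five-concentration, 48-hour dose response in 96-well plates underlies each endpoint, interpolated linearly between surrounding concentrations. GI50 marks 50% less growth. TGI: total growth inhibition.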

Key:
Assay in all cases: NCI-60 cell line screen, 48 h
[1] = tested on: SK-MEL-5 melanoma
[2] = tested on: SK-OV-3 ovarian
[3] = tested on: 786-0 renal
[4] = tested on: EKVX NSCLC
[5] = tested on: SR leukemia
[6] = tested on: SF-539 CNS
[7] = tested on: HCC-2998 colon
[8] = tested on: OVCAR-3 ovarian
[9] = tested on: HCT-15 colon
[10] = tested on: K-562 leukemia
[11] = tested on: SW-620 colon
[12] = tested on: SK-MEL-2 melanoma
[13] = tested on: MDA-MB-231 breast
[14] = tested on: TK-10 renal
[15] = tested on: A549 NSCLC
[16] = tested on: OVCAR-5 ovarian
[17] = tested on: OVCAR-8 ovarian
[18] = tested on: CAKI-1 renal
[19] = tested on: DU-145 prostate
[20] = tested on: RXF 393 renal
[21] = tested on: SN12C renal
[22] = tested on: U251 CNS
[23] = tested on: RPMI-8226 leukemia
[24] = tested on: ACHN renal
[25] = tested on: LOX IMVI melanoma
[26] = tested on: HS 578T breast
[27] = tested on: MOLT-4 leukemia
[28] = tested on: HL-60(TB) leukemia
[29] = tested on: OVCAR-4 ovarian
[30] = tested on: HOP-92 NSCLC
[31] = tested on: MDA-MB-435
[32] = tested on: SF-268 CNS
[33] = tested on: SK-MEL-28 melanoma
[34] = tested on: UACC-257 melanoma
[35] = tested on: HT29 colon
[36] = tested on: MCF7 breast
[37] = tested on: HCT-116 colon
[38] = tested on: SF-295 CNS
[39] = tested on: SNB-19 CNS
[40] = tested on: PC-3 prostate
[41] = tested on: NCI/ADR-RES ovarian
[42] = tested on: IGROV1 ovarian
[43] = tested on: CCRF-CEM leukemia
[44] = tested on: HOP-62 NSCLC
[45] = tested on: KM12 colon
[46] = tested on: NCI-H460 lung
[47] = tested on: COLO 205 colon
[48] = tested on: UO-31 renal
[49] = tested on: MALME-3M melanoma
[50] = tested on: UACC-62 melanoma
[51] = tested on: SNB-75 CNS
[52] = tested on: BT-549 breast
[53] = tested on: NCI-H23 lung
[54] = tested on: NCI-H522 lung
[55] = tested on: T-47D breast
[56] = tested on: NCI-H226 lung
[57] = tested on: A498 renal

N#CC(=C1SCS1)[N+](=O)[O-]
GI50 [1]: 3.25 µM
TGI [1]: 13.8 µM
GI50 [2]: 5.35 µM
TGI [2]: 43.3 µM
GI50 [3]: 3.12 µM
TGI [3]: 14 µM
GI50 [4]: 12.4 µM
TGI [4]: 31.1 µM
GI50 [5]: 0.568 µM
TGI [5]: 4.31 µM
GI50 [6]: 2.23 µM
TGI [6]: 12.7 µM
GI50 [7]: 4.26 µM
TGI [7]: 16.6 µM
GI50 [8]: 1.13 µM
TGI [8]: 3.92 µM
GI50 [9]: 0.853 µM
TGI [9]: 9.56 µM
GI50 [10]: 0.371 µM
TGI [10]: > 100 µM
GI50 [11]: 0.454 µM
TGI [11]: 6.47 µM
GI50 [12]: 6.7 µM
TGI [12]: 20.7 µM
GI50 [13]: 4.94 µM
TGI [13]: 20.4 µM
GI50 [14]: 3.68 µM
TGI [14]: 13.4 µM
GI50 [15]: 4 µM
TGI [15]: 40.6 µM
GI50 [16]: 4.12 µM
TGI [16]: 19.9 µM
GI50 [17]: 3.16 µM
TGI [17]: 13.8 µM
GI50 [18]: 2.14 µM
TGI [18]: 16.2 µM
GI50 [19]: 2.56 µM
TGI [19]: 10.1 µM
GI50 [20]: 1.63 µM
TGI [20]: 3.83 µM
GI50 [21]: 4.35 µM
TGI [21]: 18.4 µM
GI50 [22]: 2.37 µM
TGI [22]: 10.8 µM
GI50 [23]: 0.678 µM
TGI [23]: 4.06 µM
GI50 [24]: 2.4 µM
TGI [24]: 13.2 µM
GI50 [25]: 0.567 µM
TGI [25]: 14.7 µM
GI50 [26]: 3.67 µM
TGI [26]: 41.2 µM
GI50 [27]: 0.639 µM
TGI [27]: 6.5 µM
GI50 [28]: 0.618 µM
TGI [28]: 6.36 µM
GI50 [29]: 4.79 µM
TGI [29]: 19 µM
GI50 [30]: 0.365 µM
TGI [30]: 10.4 µM
GI50 [31]: 1.48 µM
TGI [31]: 16.9 µM
GI50 [32]: 3.64 µM
TGI [32]: 20.1 µM
GI50 [33]: 3.59 µM
TGI [33]: 15.1 µM
GI50 [34]: 1.09 µM
TGI [34]: 7.06 µM
GI50 [35]: 0.336 µM
TGI [35]: 11.2 µM
GI50 [36]: 1.31 µM
TGI [36]: 17.8 µM
GI50 [37]: 0.346 µM
TGI [37]: 10.3 µM
GI50 [38]: 4.82 µM
TGI [38]: 44.4 µM
GI50 [39]: 9.36 µM
TGI [39]: 83.5 µM
GI50 [40]: 5.11 µM
TGI [40]: 20.7 µM
GI50 [41]: 3.05 µM
TGI [41]: 20 µM
GI50 [42]: 3.55 µM
TGI [42]: 71.1 µM
GI50 [43]: 0.376 µM
TGI [43]: 5.18 µM
GI50 [44]: 4.9 µM
TGI [44]: 21.1 µM
GI50 [45]: 3.29 µM
TGI [45]: 14.2 µM
GI50 [46]: 2.99 µM
TGI [46]: 10.1 µM
GI50 [47]: 1.41 µM
TGI [47]: 3.92 µM
GI50 [48]: 6.04 µM
TGI [48]: 24.3 µM
GI50 [49]: 3.21 µM
TGI [49]: 18.1 µM
GI50 [50]: 2.29 µM
TGI [50]: 13.6 µM
GI50 [51]: 2.44 µM
TGI [51]: 8.76 µM
GI50 [52]: 9.3 µM
TGI [52]: 23 µM
GI50 [53]: 7.96 µM
TGI [53]: 34.8 µM
GI50 [54]: 0.687 µM
TGI [54]: 2.08 µM
GI50 [55]: 0.724 µM
TGI [55]: 20.9 µM
GI50 [56]: 16.7 µM
TGI [56]: 62.8 µM
GI50 [57]: 2.31 µM
TGI [57]: 12.7 µM
